# Experimental data taken from patent publication US12102618B2, “Use of riluzole prodrugs to treat ataxias” (Biohaven Therapeutics Ltd., priority 2017, dated 2024).
# How the values were obtained:
# Type in all cases: in vivo, human
# [1] = tested on: patients with Spinocerebellar Ataxia (SCA); assay: BHV4157-201 open-label extension phase, interim analysis: modified SARA (axial items)
# From the text: This example describes a study entitled: Interim Extension Phase Analyses of Study BHV4157-201: Phase IIb/III, Randomized, Double-blind, Placebo-controlled Trial of Troriluzole (BHV-4157) in Adult Subjects with Spinocerebellar Ataxia followed by 96-Week Open-Label Extension Phase.
# To date, all subjects have had the chance to complete the Week 24 visit from the long term, open-label extension phase of the trial.
# BHV4157-201 is an on-going Phase IIb/III, multicenter, randomized, double-blind, 2-arm placebo-controlled parallel-group study designed to assess safety, tolerability, and efficacy in a population of patients with Spinocerebellar Ataxia (SCA). The study is comprised of two periods: an 8-week randomization period, followed by a 96-week open-label extension period. Regarding key entry criteria, subjects were male and female outpatients between the ages of 18-75 years, inclusive, with a known or suspected diagnosis of the following hereditary ataxias: SCA1, SCA2, SCA3, SCA6, SCA7, SCA8 and SCA10. All subjects completed genetic testing to confirm the diagnosis of hereditary ataxias. The primary objective of the study is to compare the efficacy of troriluzole versus placebo on ataxia symptoms in patients with SCA as measured by the total score on the Scale for the Assessment and Rating of Ataxia (SARA). Secondary objectives include assessments of functional disability, non-ataxia symptoms associated with SCA, global functioning, performance-based measures of ataxia, and neuropsychiatric and cognitive functioning.
# During the 8-week Randomization Phase of the study, which has been completed, 141 subjects were randomized, in a 1:1 ratio, to receive either BHV-4157 (140 mg daily) or Placebo. Subjects completing the Randomization Phase were offered approximately 96 weeks of open-label treatment, provided the investigator believed open-label treatment offered an acceptable risk-benefit profile.
# [2] = Tolerability in BHV4157-201 trial; details: patients with SCA
# From the text: Study Type: Interventional Study Design: Allocation: Randomized • Intervention Model: Parallel Assignment • Masking: Quadruple (Participant, Care Provider, Investigator, Outcomes Assessor) • Primary Purpose: Treatment • Official Title: A Phase IIb/III, Randomized, Double-blind, Placebo-controlled Trial of BHV-4157 in Adult Subjects With Spinocerebellar Ataxia Primary Outcome Measures: • To measure the change in total score on the Scale for Assessment and Rating of Ataxia (SARA) [Time Frame: The change in total score from baseline to week 8.] […] Measured by the frequency and severity of adverse events and discontinuations of adverse events. • To compare efficacy of BHV-4157 with placebo on patient impression of benefit via use of the PGI-C [Time Frame: Baseline to Week 8] […]
# BHV4157-201 is an on-going Phase IIb/III, multicenter, randomized, double-blind, 2-arm placebo-controlled parallel-group study designed to assess safety, tolerability, and efficacy in a population of patients with Spinocerebellar Ataxia (SCA). […] The primary objective of the study is to compare the efficacy of troriluzole versus placebo on ataxia symptoms in patients with SCA as measured by the total score on the Scale for the Assessment and Rating of Ataxia (SARA). […]
# [3] = tested on: subjects with spinocerebellar ataxia (SCA); assay: Same trial: Clinical Global Impression-Global Improvement (CGI-I)
# Procedure: Clinical Global Impression-Global Improvement (CGI-I)
# (§1) The study is a Phase IIb/III, multicenter, randomized, double-blind, 2-arm placebo-controlled parallel-group study designed to assess safety, tolerability, and efficacy signals in a population of patients with Spinocerebellar Ataxia (SCA). Subjects will be randomized to receive placebo (QD) or BHV-4157 (140 mg QD), stratified by diagnosis (genotype) and baseline severity (Gait Item of the SARA of ≤4 and >4). Subjects with SCA3 genotype will be limited to comprise up to approximately 10% of the total population so that this most common type of SCA is not over-represented.
# [4] = tested on: ataxia symptoms in subjects with spinocerebellar ataxia (SCA); assay: Phase IIb/III randomized, double-blind, placebo-controlled trial of BHV-4157 in SCA (BHV4157-201), 8-week randomization phase: SARA; design: key to Total SARA change / Total SARA, Δ Btw Groups / Axial SARA [#1-4] change / Appendicular SARA [4-8] change / Total SARA change (LSmeans) / Gait [#1] change (LSmeans) / Axial Items [#1-4] change (LSmeans) / Appendicular [#5-8] change (LSmeans) / Change in Total SARA Score / Axial Items [1-4] change / Appendicular Items [5-8] change / ΔSARA (between groups): SARA points; total scale 0 (no ataxia) to 40 (severe)
# Procedure: One measure for assessment of the methods of the present invention is by using the Scale for the Assessment and Rating of Ataxia (“SARA”).
# The SARA was developed as a clinician-administered instrument to measure severity of symptoms in patients with SCA. While there are multiple scales available, the SARA has been tested in many patients with SCA.
# The SARA scores range from 0 (no ataxia) to 40 (severe). The SARA takes approximately 15 minutes to administer. Assessed items include: • Gait (rated 0 to 8) • Stance (0 to 6) • Sitting (0 to 4) • Speech disturbance (0 to 6) • Finger chase (0 to 4) • Nose-finger test (0 to 4) • Fast alternating hand movements (0 to 4) • Heel-shin slide (0 to 4)
# Once each of the 8 categories has been assessed, the total score is calculated to determine the severity of ataxia. For motor activities of the four extremities (items 5-8), assessments are performed bilaterally and the mean values are used to obtain the total score.
# The purpose of this study is to compare the efficacy of BHV-4157 versus placebo on ataxia symptoms in subjects with spinocerebellar ataxia (SCA).
# Study Type: Interventional Study Design: Allocation: Randomized • Intervention Model: Parallel Assignment • Masking: Quadruple (Participant, Care Provider, Investigator, Outcomes Assessor) • Primary Purpose: Treatment • Official Title: A Phase IIb/III, Randomized, Double-blind, Placebo-controlled Trial of BHV-4157 in Adult Subjects With Spinocerebellar Ataxia Primary Outcome Measures: • To measure the change in total score on the Scale for Assessment and Rating of Ataxia (SARA) [Time Frame: The change in total score from baseline to week 8.] Secondary Outcome Measures: • To assess the safety and tolerability of BHV-4157 in subjects with SCA by measuring the frequency and severity of adverse events and discontinuations of adverse events. [Time Frame: Baseline to week 8.] Measured by the frequency and severity of adverse events and discontinuations of adverse events. • To compare efficacy of BHV-4157 with placebo on patient impression of benefit via use of the PGI-C [Time Frame: Baseline to Week 8] Change in PGI-C score
# as §1
# Dosing will continue for 8 weeks. Subjects will return to the clinic two weeks after discontinuing study medication for a follow-up safety visit. In addition, subjects completing the Randomization Phase will be offered 48 weeks of open-label treatment as long as the PI believes open-label treatment offers an acceptable risk-benefit profile. Subjects who agree to enter the Extension Phase will not be required to wash-out of drug or complete the follow-up safety visit, but instead should continue dosing as specified in the extension phase. Subjects entering the Extension Phase would have their first Extension Visit four weeks after the Week 8 Randomization Phase visit. If there is a delay of two weeks or more in dosing between the Randomization Phase and the Extension Phase, subjects will be required to complete an Extension Baseline Visit. Thereafter, subjects will undergo visits every fourth week through Week 12 of this phase. Then subjects will undergo visits every 12 weeks up to Week 48 of this phase.
# [5] = Females Subjects in Experienced Site Group, n = 17
# [6] = Females Subjects in Stable Subgroup, n = 18
# [7] = NOT-STABLE subjects, n = 28, week 8
smiles,measurement,setting,value
"CN(CC(=O)Nc1nc2ccc(OC(F)(F)F)cc2s1)C(=O)CNC(=O)CN [BHV-4157, troriluzole]",Mod SARA change (SD) from Randomization Baseline,"[1]; All Patients, 8 weeks",−0.4 (1.50)
same,Mod SARA change (SD) from Randomization Baseline,"[1]; All Patients, 36 weeks",−0.1 (1.30)
same,Mod SARA change (SD) from Randomization Baseline,"[1]; Female Subgroup, 8 weeks",−0.3 (1.48)
same,Mod SARA change (SD) from Randomization Baseline,"[1]; Female Subgroup, 24 weeks",−0.4 (1.32)
same,Mod SARA change (SD) from Randomization Baseline,"[1]; Female Subgroup, 36 weeks",−0.1 (1.41)
same,Mod SARA change (SD) from Randomization Baseline,"[1]; Female Subgroup, 48 weeks",−0.1 (1.50)
same,Mod SARA change (SD) from Randomization Baseline,"[1]; Low Weight Subgroup, 8 weeks",−0.6 (1.56)
same,Mod SARA change (SD) from Randomization Baseline,"[1]; Low Weight Subgroup, 24 weeks",−0.5 (1.44)
same,Mod SARA change (SD) from Randomization Baseline,"[1]; Low Weight Subgroup, 36 weeks",−0.3 (1.34)
same,Mod SARA change (SD) from Randomization Baseline,"[1]; Low Weight Subgroup, 48 weeks",−0.2 (1.41)
same,Mod SARA change (SD) from Randomization Baseline,"[1]; Non-SCA1 & SCA2, 8 weeks",−0.3 (1.58)
same,Mod SARA change (SD) from Randomization Baseline,"[1]; Non-SCA1 & SCA2, 24 weeks",−0.3 (1.24)
same,Mod SARA change (SD) from Randomization Baseline,"[1]; Non-SCA1 & SCA2, 36 weeks",−0.1 (1.44)
same,Mod SARA change (SD) from Randomization Baseline,"[1]; Non-SCA1 & SCA2, 48 weeks",−0.2 (1.44)
same,Mod SARA change (SD) from Randomization Baseline,"[1]; SCA1 & SCA2, 8 weeks",−0.5 (1.47)
same,Mod SARA change (SD) from Randomization Baseline,"[1]; SCA1 & SCA2, 24 weeks",−0.4 (1.45)
same,Mod SARA change (SD) from Randomization Baseline,"[1]; SCA1 & SCA2, 36 weeks",−0.1 (1.20)
same,Mod SARA change (SD) from Randomization Baseline,"[1]; SCA1 & SCA2, 48 weeks",0.1 (1.44)
same,improvement in the axial SARA score,[1]; at 6 months,−0.1 point
same,tolerability profile,[2],favorable
same,CGI Much Improved,[3]; Lighter at EXP sites,14%
same,CGI Any Improvement,"[3]; Lighter at EXP sites, n = 15",60% (n = 15)
same,CGI Much Improved,[3]; Lighter sample,27%
same,CGI Any Improvement,"[3]; Lighter sample, n = 22",64% (n = 22)
same,"Responder Analysis, ≥3 points in All Subjects (n = 67)",[4]; Females,32%
same,"Responders, ≥1 point",[4]; [5],71%
same,"Responders, ≥3 points",[4]; [5],41%
same,"Responders, ≥1 point",[4]; [6],67%
same,"Responders, ≥3 points",[4]; [6],39%
same,Change in Total SARA Score,"[4]; Females, All Subjects, n = 31, week 8",−1.08
same,Change in Total SARA Score,"[4]; Females, Experience of Sites, n = 20",−1.15
same,Change in Total SARA Score,"[4]; Females, STABLE Subgroup, n = 18",−1.33
same,"Responder Analysis, ≥3 points in Stable Subjects (n = 38)","[4]; Females, printed on line Experience of Sites",35%
same,"Responder Analysis, ≥3 points at Experienced sites (n = 33)","[4]; Females, printed on line STABLE Subgroup",39%
same,Appendicular SARA [4-8] change,[4]; [7],−0.15
same,Axial SARA [#1-4] change,[4]; [7],−0.46
same,Total SARA change,"[4]; STABLE subjects (screening-to-baseline SARA within 1 point), n = 34, 140 mg QD, baseline to week 8",−0.90
same,"Total SARA, Δ Btw Groups","[4]; STABLE subjects, BHV-4157 vs placebo, week 8",−0.39
same,Appendicular SARA [4-8] change,"[4]; STABLE subjects, n = 34, week 8",−0.36
